Where a name gives a salt, the structure may show the parent alone.
Experiments:
Type in all cases: cell-based
S. flexneri 2a EW-10 = experiment: MIC by agar plate dilution method, S. flexneri 2a EW-10; conditions: Shigella flexneri, 2AEW10, seeding 10^6 cells/ml, read-out: minimum inhibitory concentration (MIC)
Procedure: (§1) Each series of dilution was prepared with use of testing compounds prepared by the Examples and control compound of Gentamicin as well as a liquid medium. The minimum inhibitory concentration (MIC in μg/ml) to each pathogen (seeding amount: 10^6 cells/ml) was determined, in accordance with the standard method (agar plate dilution method) by the Chemotherapy Society of Japan.

P. aeruginosa Nc-5 = experiment: MIC by agar plate dilution method, P. aeruginosa Nc-5; conditions: for MIC: Pseudomonas aeruginosa, NC5, seeding 10^6 cells/ml, read-out: minimum inhibitory concentration (MIC)
Procedure: as §1

P. rettgeri NIH 96 = experiment: MIC by agar plate dilution method, P. rettgeri NIH 96; conditions: for MIC: Providencia rettgeri, NIH96, seeding 10^6 cells/ml, read-out: minimum inhibitory concentration (MIC)
Procedure: as §1

P. vulgaris OX-19 = experiment: MIC by agar plate dilution method, P. vulgaris OX-19; conditions: for MIC: Proteus vulgaris, OX19, seeding 10^6 cells/ml, read-out: minimum inhibitory concentration (MIC)
Procedure: as §1

E. coli NIH = experiment: MIC by agar plate dilution method, E. coli NIH; conditions: seeding 10^6 cells/ml; for MIC: Escherichia coli, read-out: minimum inhibitory concentration (MIC)
Procedure: as §1

C. fleundii NIH 10018-68 = experiment: MIC by agar plate dilution method, C. fleundii NIH 10018-68; conditions: for MIC: read-out: minimum inhibitory concentration (MIC)
Procedure: as §1

E. coli K-12 = experiment: MIC by agar plate dilution method, E. coli K-12; conditions: for MIC: Escherichia coli, K12, seeding 10^6 cells/ml, read-out: minimum inhibitory concentration (MIC)
Procedure: as §1

S. typhi T-287 = experiment: MIC by agar plate dilution method, S. typhi T-287; conditions: seeding 10^6 cells/ml; for MIC: Salmonella enterica, read-out: minimum inhibitory concentration (MIC)
Procedure: as §1

K. pneumoniae NCTC 9632 = experiment: MIC by agar plate dilution method, K. pneumoniae NCTC 9632; conditions: for MIC: Klebsiella pneumoniae, NCTC9632, seeding 10^6 cells/ml, read-out: minimum inhibitory concentration (MIC)
Procedure: as §1

Question: For `CO/N=C(\C(=O)N[C@@H]1C(=O)N2C(C(=O)[O-])=C(C[n+]3ccc(OC)c([Si](C)(C)C)c3)CS[C@H]12)c1csc(N)n1` [Example 3, [6R-[6α,7β(Z)]]-1-[7-[[(2-Amino-4-thiazolyl)(methoxyimino)acetyl]amino]-2-carboxy-8-oxo-5-thia-1-azabicyclo[4,2,0]oct-2-en-3-yl]methyl-4-methoxy-3-trimethylsilylpyridinium hydroxide, inner salt], which MIC (S. flexneri 2a EW-10) is on record?
Answer: 0.39 µg/mL

Question: What about the MIC (P. aeruginosa Nc-5) of the same compound?
Answer: 6.25 µg/mL

Question: And the MIC (P. rettgeri NIH 96)?
Answer: < 0.2 µg/mL

Question: And the MIC (P. vulgaris OX-19)?
Answer: < 0.2 µg/mL

Question: And the MIC (E. coli NIH)?
Answer: 0.78 µg/mL

Question: And the MIC (C. fleundii NIH 10018-68)?
Answer: 0.78 µg/mL

Question: What about the MIC (E. coli K-12) of the same compound?
Answer: 0.78 µg/mL

Question: What about the MIC (S. typhi T-287) of the same compound?
Answer: 0.39 µg/mL

Question: And the MIC (K. pneumoniae NCTC 9632)?
Answer: 0.78 µg/mL

Question: Which results are given for `CO/N=C(\C(=O)N[C@@H]1C(=O)N2C(C(=O)[O-])=C(C[n+]3cccc([Si](C)(C)C)c3)CS[C@H]12)c1csc(N)n1` [Example 1, [6R-[6α,7β(Z)]]-1-[7-[[(2-Amino-4-thiazolyl)(methoxyimino)acetyl]amino]-2-carboxy-8-oxo-5-thia-1-azabicyclo[4,2,0]oct-2-en-3-yl]methyl-3-trimethylsilylpyridinium hydroxide, inner salt]?
Answer: MIC (S. flexneri 2a EW-10): < 0.2 µg/mL; MIC (P. aeruginosa Nc-5): 1.56 µg/mL; MIC (P. rettgeri NIH 96): < 0.2 µg/mL; MIC (P. vulgaris OX-19): < 0.2 µg/mL; MIC (E. coli NIH): < 0.2 µg/mL; MIC (C. fleundii NIH 10018-68): < 0.2 µg/mL; MIC (E. coli K-12): 0.39 µg/mL; MIC (S. typhi T-287): < 0.2 µg/mL; MIC (K. pneumoniae NCTC 9632): 0.39 µg/mL

Question: What does the source list for `CO/N=C(\C(=O)N[C@@H]1C(=O)N2C(C(=O)[O-])=C(C[n+]3ccc([Si](C)(C)C)cc3)CS[C@H]12)c1csc(N)n1` [Example 2, [6R-[6α,7β(Z)]]-1-[7-[[(2-Amino-4-thiazolyl)(methoxyimino)acetyl]amino]-2-carboxy-8-oxo-5-thia-1-azabicyclo[4,2,0]oct-2-en-3-yl]methyl-4-trimethylsilylpyridinium hydroxide, inner salt]?
Answer: MIC (S. flexneri 2a EW-10): 0.39 µg/mL; MIC (P. aeruginosa Nc-5): 6.25 µg/mL; MIC (P. rettgeri NIH 96): < 0.2 µg/mL; MIC (P. vulgaris OX-19): < 0.2 µg/mL; MIC (E. coli NIH): < 0.2 µg/mL; MIC (C. fleundii NIH 10018-68): < 0.2 µg/mL; MIC (E. coli K-12): 0.78 µg/mL; MIC (S. typhi T-287): 0.39 µg/mL; MIC (K. pneumoniae NCTC 9632): 0.78 µg/mL

Question: Which results are given for Gentamicin [reference compound]?
Answer: minimum inhibitory concentration (MIC) (P. aeruginosa Nc-5; seeding 10^6 cells/ml): 3.13 µg/mL; minimum inhibitory concentration (MIC) (P. rettgeri NIH 96; seeding 10^6 cells/ml): < 0.20 µg/mL; minimum inhibitory concentration (MIC) (P. vulgaris OX-19; seeding 10^6 cells/ml): 3.13 µg/mL; minimum inhibitory concentration (MIC) (E. coli NIH): 0.78 µg/mL; minimum inhibitory concentration (MIC) (C. fleundii NIH 10018-68; C. fleundii NIH 10018-68, seeding 10^6 cells/ml, agar plate dilution): 0.39 µg/mL; minimum inhibitory concentration (MIC) (E. coli K-12; seeding 10^6 cells/ml): 0.78 µg/mL; minimum inhibitory concentration (MIC) (S. typhi T-287): 0.78 µg/mL; minimum inhibitory concentration (MIC) (K. pneumoniae NCTC 9632; seeding 10^6 cells/ml): 0.78 µg/mL
